Measured values taken from patent US20250228815A1, “LYOPHILIZED RESINIFERATOXIN” (Gruenenthal GmbH, priority 2024, published 2025).
In brackets after ≈: the same amount, converted by molar mass. Where two headings read alike, the source gives them in different places.

How the values were obtained:
[1] = maximum solubility of Resiniferatoxin by the equilibrium method (HPLC); type: physicochemical; details: buffer medium with TPGS, 25 °C, pH 8, aqueous with cosolvent or surfactant or cyclodextrin, thermodynamic from solid, TPGS 3.5 mg/ml, n ≥ 3, read-out: RTX solubility
Description: The maximum solubility of Resiniferatoxin in various liquids was investigated by the equilibrium method.
Buffer media were saturated with an excess amount of Resiniferatoxin (characterized by undissolved API) and incubated at 25° C. while shaking (150 rpm) for 72 h. After incubation, 1 mL of each sample was centrifuged (10 min, 12045 RCF) and the supernatant was used to determine the amount of solubilized Resiniferatoxin via HPLC.

[2] = randomized, double-blind, placebo-controlled, single-dose trial of intraarticular Resiniferatoxin: analgesic effect (VAS pain on motion, WOMAC); type: in vivo, human
Description: (§1) The primary objective of this study was to compare the analgesic effects of single intraarticular injections of Resiniferatoxin (100 or 400 ng) compared to placebo, at 3 and 6 months postinjection, in participants with chronic osteoarthritic knee joint pain. Secondary objectives were to evaluate the analgesic effects of Resiniferatoxin versus placebo in terms of a responder analysis (percentage of subjects achieving ≥50% or ≥70% reduction in visual analog scale pain score) and changes in Western Ontario and McMaster Universities Arthritis Index (WOMAC) total and subscale scores (pain, physical function and stiffness). Safety and injection site pain were also evaluated.
(§2) The study was conducted as a randomized, double-blind, placebo-controlled, single-dose trial of Resiniferatoxin. Eligible patients were aged 40 to 80 years with radiographic knee osteoarthritis (Kellgren-Lawrence Grade 2-4 in the last 3 years) and a baseline visual analog scale (0-100 mm) pain score ≥40 mm on motion in the target knee, with or without pain medication. 67 subjects were randomized to treatment with either Resiniferatoxin 100 ng (n=24) or 400 ng (n=23), or placebo (n=20), administered intraarticularly into the index knee. Intraarticular Ropivacaine (5 ml, 0.5%) was administered 15 mins before investigational medicinal product. Visual analog scale scores were used to evaluate pain on motion as the average of the last 2 days in a target knee between baseline and at 3 and 6 months post injection. Injection site pain was rated (visual analog scale) from baseline (−0.5 h) up to 3 h post intraarticular injections.
Data values plotted as mean±standard error of mean, offset in X for clarity. ▴ Placebo (n=20); ▪ Resiniferatoxin 100 ng (n=24); ● Resiniferatoxin 400 ng (n=23).

[3] = same trial: safety, treatment emergent adverse events and injection site pain; type: in vivo, human; details: for subjects with severe adverse events: none related to investigational medicinal product
Description: as §1, §2

[4] = cited from earlier work
[5] = single intraarticular 100 ng or 400 ng

SMILES	solubility at 72 h ([1]; Ex. 5-1: no ethanol, NaCl 8.58, CaCl2 0.2, KCl 0.1, trometamol 0.4 mg/ml, pH 8.0, mean ± SD) [µg/mL]	solubility at 72 h ([1]; Ex. 5-2: ethanol 39.44 mg/ml, NaCl 8.58, CaCl2 0.58, KCl 0.3, trometamol 1.22 mg/ml, pH 8.0, mean ± SD) [µg/mL]	solubility at 72 h ([1]; Ex. 5-3: ethanol 39.44 mg/ml, mannitol 14.9 mg/ml, salts as Ex. 5-2, pH 8.0, mean ± SD) [µg/mL]	solubility at 72 h ([1]; Ex. 5-4: no ethanol, NaCl 8.58, CaCl2 0.58, KCl 0.3, trometamol 1.22 mg/ml, pH 8.0, mean ± SD) [µg/mL]	reduction in WOMAC total and subscale scores (pain, physical function and stiffness) compared to placebo ([2]; 100 ng and 400 ng, at both 3 and 6 months)	pain reduction compared to placebo ([2]; 100 ng or 400 ng intraarticular)	first trial visit at which reduction in VAS pain on motion was observed ([2]; intention-to-treat population) [days]	last trial visit until which the effect lasted ([2]; intention-to-treat population) [month]	analgesic onset after administration [2, 5]	duration for which analgesia was evident during follow-up [2, 5]	subjects with severe adverse events ([3]; Resiniferatoxin 100 ng) [subjects]	subjects with severe adverse events ([3]; Resiniferatoxin 400 ng) [subjects]	injection site pain (procedural pain) compared to placebo ([3]; highly variable across treatment groups)	time of peak injection site pain post-injection ([3]; intraarticular injection, moderate-severe intensity in some subjects)	injection site pain, return to baseline ([3]; post intraarticular injection) [h]	safety profile and tolerability [3, 5]	efficacy ([4]; 5 μg, 12.5 μg, 20 μg and 30 μg cohorts, preliminary)	safety ([4]; onetime intraarticular injection up to 30 μg)
C=C(C)[C@]12C[C@@H](C)[C@@]34O[C@](Cc5ccccc5)(O[C@@H]1[C@@H]3C=C(COC(=O)Cc1ccc(O)c(OC)c1)C[C@]1(O)C(=O)C(C)=C[C@@H]41)O2 [RTX]	333 ± 100 (≈ 530 µM)	630 ± 38 (≈ 1000 µM)	336 ± 53	317 ± 75 (≈ 504 µM)														
C=C(C)[C@]12C[C@@H](C)[C@@]34O[C@](Cc5ccccc5)(O[C@@H]1[C@@H]3C=C(COC(=O)Cc1ccc(O)c(OC)c1)C[C@]1(O)C(=O)C(C)=C[C@@H]41)O2 [Resiniferatoxin, 4-hydroxy-3-methoxy-benzeneacetic acid, [(2S,3aR,3bS,6aR,9aR,9bR, 10R,11aR)-3a,3b,6,6a,9a,10,11,11a-octahydro-6a-hydroxy-8,10-dimethyl-11a-(1-methylethenyl)-7-oxo-2-(phenylmethyl)-7H-2,9b-epoxyazuleno[5,4-e]-1,3-benzodioxol-5-yl]methyl ester]					greater reduction	greater pain reduction	8	6	within one week	at least 3 months	2	3	generally higher	around 0.5 h	≤ 3	good safety profile	Preliminary efficacy was also observed	demonstrated safety
